Patent US20070128217A1 (priority 2003, published 2007)

Key:
[1] = system: antibodies in sera from SARS patients (sera 1a, 1b, 2, 6, 37, 62, London, SARS-yellow, SARS-green); format: binding, human; set-up: Binding of serum 6 to linear peptides of protein X1 of SARS-CoV Urbani / Binding of serum 37 to linear peptides of protein X1 of SARS-CoV Urbani / Binding of serum 6 to looped/cyclic peptide (PEPSCAN-ELISA) / Binding of serum 37 to looped/cyclic peptide (PEPSCAN-ELISA) / Binding of serum 37 to looped/cyclic peptides of protein X1 of SARS-CoV Urbani / Binding of serum 6 to linear peptides of protein X2 / Binding of serum 37 to linear peptides of protein X2 / Binding of serum 37 to looped/cyclic peptides of protein X2 of SARS-CoV Urbani / Binding of serum 6 to linear peptides of protein M of SARS-CoV Urbani / Binding of serum 37 to linear peptides of protein M of SARS-CoV Urbani / Binding of serum 6 to looped/cyclic peptides of protein M of SARS-CoV Urbani / Binding of serum 37 to looped/cyclic peptides of protein M of SARS-CoV Urbani / Binding of serum 6 to linear peptides of protein X3 of SARS-CoV Urbani / Binding of serum 37 to linear peptides of protein X3 of SARS-CoV Urbani / Binding of serum 37 to looped/cyclic peptides of protein X3 of SARS-CoV Urbani / Binding of serum 6 to linear peptides of protein X4 of SARS-CoV Urbani / Binding of serum 37 to linear peptides of protein X4 of SARS-CoV Urbani / Binding of serum 37 to looped/cyclic peptides of protein X4 of SARS-CoV Urbani / Binding of serum 6 to linear peptides of protein X5 of SARS-CoV Urbani / Binding of serum 37 to linear peptides of protein X5 of SARS-CoV Urbani / Binding of serum 37 to looped/cyclic peptides of protein X5 of SARS-CoV Urbani / Binding of serum 6 to linear peptides of protein N of SARS-CoV Urbani / Binding of serum 37 to linear peptides of protein N of SARS-CoV Urbani / Binding of serum 6 to linear peptide (PEPSCAN-ELISA) / Binding of serum 1a to looped/cyclic peptides of protein N of SARS-CoV Urbani / Binding of serum 1b to looped/cyclic peptides of protein N of SARS-CoV Urbani / Binding of serum 2 to looped/cyclic peptides of protein N of SARS-CoV Urbani / Binding of serum 6 to looped/cyclic peptides of protein N of SARS-CoV Urbani / Binding of serum 37 to looped/cyclic peptides of protein N of SARS-CoV Urbani / Binding of serum 62 to looped/cyclic peptides of protein N of SARS-CoV Urbani / Binding of serum London to looped/cyclic peptides of protein N of SARS-CoV Urbani / Binding of serum SARS-green to looped/cyclic peptides of protein N of SARS-CoV Urbani: unit not given here
[2] = system: control sera (pooled serum of ten healthy LUMC hospital workers; commercial negative donor pooled serum from the Dutch bloodbank); format: binding, human; set-up: Binding of Control serum LUMC to linear peptides / Binding of Control serum Blood-bank to linear peptides / Binding of Control serum LUMC to looped peptides / Binding of Control Serum Blood-Bank to Looped peptides / Binding of Control serum LUMC to linear peptides of the protein M of SARS-CoV Urbani / Binding of Control serum Blood-bank to linear peptides of the protein M of SARS-CoV Urbani / Binding of Control serum LUMC to looped peptides of the protein M of SARS-CoV Urbani / Binding of Control Serum Blood-Bank to Looped peptides of the protein M of SARS-CoV Urbani: unit not given here
[3] = system: rabbit serum obtained by immunizing a rabbit with the SARS-CoV strain Frankfurt 1; format: binding; set-up: Binding of a rabbit serum to linear peptides / Binding of a rabbit serum to looped peptides / Rabbit serum linear peptides / Rabbit serum looped peptides / Binding of a rabbit serum to linear peptides of protein N of SARS-CoV Urbani (Rabbit serum linear peptides) / Binding of a rabbit serum to looped/cyclic peptides of protein N of SARS-CoV Urbani (Rabbit serum looped peptides): unit not given here
[4] = system: recombinant human anti-SARS-CoV antibody 03-018; format: binding; set-up: Binding of antibody 03-018 to linear peptides of the N protein of SARS-CoV Urbani / Binding of antibody 03-018 to looped/cyclic peptides of the N protein of SARS-CoV Urbani: unit not given here

WPQIAQFAPSASAFF
0.1: Binding of serum 1b to linear peptides of protein N of SARS-CoV Urbani [1] | Binding of serum 2 to linear peptides of protein N of SARS-CoV Urbani [1] | Binding of a rabbit serum to linear peptides of protein N of SARS-CoV Urbani (Rabbit serum linear peptides) [3] | Binding of antibody 03-018 to linear peptides of the N protein of SARS-CoV Urbani [4]
0.7: Binding of serum SARS-yellow to linear peptides of protein N of SARS-CoV Urbani [1]
0.6: Binding of serum 37 to linear peptides of protein N of SARS-CoV Urbani [1] | Binding of serum SARS-yellow to looped/cyclic peptides of protein N of SARS-CoV Urbani [1] | Control serum Blood-bank linear peptides [2] | Control serum LUMC linear peptides [2] | Binding of a rabbit serum to looped/cyclic peptides of protein N of SARS-CoV Urbani (Rabbit serum looped peptides) [3]
0.5: Binding of serum 1a to looped/cyclic peptides of protein N of SARS-CoV Urbani [1] | Binding of serum 2 to looped/cyclic peptides of protein N of SARS-CoV Urbani [1] | Binding of serum 62 to linear peptides of protein N of SARS-CoV Urbani [1] | Binding of serum London to linear peptides of protein N of SARS-CoV Urbani [1] | Binding of serum London to looped/cyclic peptides of protein N of SARS-CoV Urbani [1] | Binding of serum SARS-green to looped/cyclic peptides of protein N of SARS-CoV Urbani [1]
0.3: Binding of serum 1b to looped/cyclic peptides of protein N of SARS-CoV Urbani [1] | Binding of serum 6 to looped/cyclic peptides of protein N of SARS-CoV Urbani [1] | Binding of serum SARS-green to linear peptides of protein N of SARS-CoV Urbani [1] | Binding of antibody 03-018 to looped/cyclic peptides of the N protein of SARS-CoV Urbani [4]
0.9: Binding of serum 62 to looped/cyclic peptides of protein N of SARS-CoV Urbani [1] | Control serum LUMC looped peptides [2]
0.2: Binding of serum 1a to linear peptides of protein N of SARS-CoV Urbani [1] | Binding of serum 6 to linear peptides of protein N of SARS-CoV Urbani [1]
0.8: Binding of serum 37 to looped/cyclic peptides of protein N of SARS-CoV Urbani [1] | Control Serum Blood-Bank Looped peptides [2]

WVATEGALNTPKDHI
0.4: Binding of serum 62 to looped/cyclic peptides of protein N of SARS-CoV Urbani [1] | Binding of serum London to looped/cyclic peptides of protein N of SARS-CoV Urbani [1] | Binding of serum SARS-green to looped/cyclic peptides of protein N of SARS-CoV Urbani [1]
0.8: Binding of Control serum Blood-bank to linear peptides [2]
0.7: Binding of serum 37 to linear peptides of protein N of SARS-CoV Urbani [1]
0.5: Binding of serum 37 to looped/cyclic peptides of protein N of SARS-CoV Urbani [1] | Binding of Control Serum Blood-Bank to Looped peptides [2] | Binding of Control serum LUMC to looped peptides [2]
0.2: Binding of serum 1a to linear peptides of protein N of SARS-CoV Urbani [1] | Binding of serum 1b to looped/cyclic peptides of protein N of SARS-CoV Urbani [1] | Binding of serum 6 to linear peptides of protein N of SARS-CoV Urbani [1] | Binding of serum 6 to looped/cyclic peptides of protein N of SARS-CoV Urbani [1] | Binding of serum SARS-yellow to looped/cyclic peptides of protein N of SARS-CoV Urbani [1] | Binding of a rabbit serum to looped/cyclic peptides of protein N of SARS-CoV Urbani (Rabbit serum looped peptides) [3] | Binding of antibody 03-018 to looped/cyclic peptides of the N protein of SARS-CoV Urbani [4]
0.9: Binding of serum 62 to linear peptides of protein N of SARS-CoV Urbani [1] | Binding of Control serum LUMC to linear peptides [2]
0.6: Binding of serum London to linear peptides of protein N of SARS-CoV Urbani [1] | Binding of serum SARS-green to linear peptides of protein N of SARS-CoV Urbani [1] | Binding of serum SARS-yellow to linear peptides of protein N of SARS-CoV Urbani [1]
0.1: Binding of serum 1b to linear peptides of protein N of SARS-CoV Urbani [1] | Binding of a rabbit serum to linear peptides of protein N of SARS-CoV Urbani (Rabbit serum linear peptides) [3] | Binding of antibody 03-018 to linear peptides of the N protein of SARS-CoV Urbani [4]
0.3: Binding of serum 1a to looped/cyclic peptides of protein N of SARS-CoV Urbani [1] | Binding of serum 2 to linear peptides of protein N of SARS-CoV Urbani [1] | Binding of serum 2 to looped/cyclic peptides of protein N of SARS-CoV Urbani [1]
